Active and inactive are the calls of the source. No cut-off for these calls is given here.
Legend:
[1] = molecular target: T1, Dual specificity tyrosine-phosphorylation-regulated kinase 2 (Homo sapiens, UniProt Q92630)
T1 sequence (Q92630 whole entry): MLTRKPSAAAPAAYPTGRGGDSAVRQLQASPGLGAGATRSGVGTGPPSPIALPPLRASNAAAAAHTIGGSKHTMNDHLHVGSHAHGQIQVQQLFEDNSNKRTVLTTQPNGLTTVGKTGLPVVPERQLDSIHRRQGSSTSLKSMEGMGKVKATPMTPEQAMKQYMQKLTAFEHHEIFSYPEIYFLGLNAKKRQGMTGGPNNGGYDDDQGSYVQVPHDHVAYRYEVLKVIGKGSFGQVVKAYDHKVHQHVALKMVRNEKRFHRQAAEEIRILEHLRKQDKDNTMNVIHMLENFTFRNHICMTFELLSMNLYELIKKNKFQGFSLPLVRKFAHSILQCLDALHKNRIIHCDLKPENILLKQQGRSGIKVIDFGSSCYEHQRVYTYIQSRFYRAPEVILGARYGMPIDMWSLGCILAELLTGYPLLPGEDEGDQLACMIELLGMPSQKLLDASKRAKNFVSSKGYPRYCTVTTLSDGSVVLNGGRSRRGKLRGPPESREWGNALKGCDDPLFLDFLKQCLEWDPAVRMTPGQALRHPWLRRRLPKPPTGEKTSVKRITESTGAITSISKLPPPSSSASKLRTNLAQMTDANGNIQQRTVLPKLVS

[2] = molecular target: T2, Serine/threonine-protein kinase haspin (Homo sapiens, UniProt Q8TF76)
T2 sequence (Q8TF76 whole entry): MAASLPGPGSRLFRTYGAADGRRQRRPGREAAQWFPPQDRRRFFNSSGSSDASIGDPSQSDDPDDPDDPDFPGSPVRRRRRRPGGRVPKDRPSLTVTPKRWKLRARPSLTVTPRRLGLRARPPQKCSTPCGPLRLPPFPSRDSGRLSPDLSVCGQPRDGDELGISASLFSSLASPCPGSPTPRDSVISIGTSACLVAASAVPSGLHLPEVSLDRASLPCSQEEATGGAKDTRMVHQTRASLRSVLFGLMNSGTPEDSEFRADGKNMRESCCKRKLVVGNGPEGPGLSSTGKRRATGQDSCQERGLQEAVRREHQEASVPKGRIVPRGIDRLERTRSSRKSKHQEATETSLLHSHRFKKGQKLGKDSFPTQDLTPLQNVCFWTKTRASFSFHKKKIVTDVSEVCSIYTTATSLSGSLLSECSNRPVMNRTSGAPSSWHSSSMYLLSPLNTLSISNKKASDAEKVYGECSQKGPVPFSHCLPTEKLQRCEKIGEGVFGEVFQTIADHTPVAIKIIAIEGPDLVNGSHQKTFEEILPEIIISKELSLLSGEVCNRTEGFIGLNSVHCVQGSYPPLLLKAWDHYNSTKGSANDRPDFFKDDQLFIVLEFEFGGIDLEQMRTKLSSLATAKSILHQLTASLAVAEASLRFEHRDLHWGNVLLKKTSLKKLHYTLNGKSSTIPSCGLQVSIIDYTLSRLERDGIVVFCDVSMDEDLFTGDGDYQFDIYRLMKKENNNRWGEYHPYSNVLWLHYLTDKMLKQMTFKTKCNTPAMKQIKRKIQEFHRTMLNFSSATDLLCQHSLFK

[3] = molecular target: Serine/threonine-protein kinase haspin (Homo sapiens) (UniProt Q8TF76); experiment: Inhibition of human recombinant N-terminal MBP-tagged haspin kinase expressed in Escherichia coli DE3 at 10 uM after 10 mins by TR-FRET assay
[4] = molecular target: T1, Dual specificity tyrosine-phosphorylation-regulated kinase 2; experiment: Inhibition of DYRK2

For COc1ccc2c3ccnc(C)c3n(CCCCN(C)C)c2c1, the IC50 [1] was > 10 µM and the IC50 [2] was 470 nM.

Work on Cc1nccc2c3cc4c(cc3n(CCCCN)c12)OCO4 yielded an IC50 [1] of 4.8 µM and an IC50 [2] of 500 nM.

COc1cccc2c1c1ccnc(C)c1n2CCCCN gave an IC50 [1] of 7 µM and an IC50 [2] of 2700 nM.

With Cc1nccc2c3ccc(O)cc3n(CCCCN)c12 the IC50 [1] was > 10 µM and the IC50 [2] was 160 nM.

Cc1nccc2c3ccc(OC(C)(C)C)cc3n(CCCCN)c12 was tested, and the IC50 [1] was > 10 µM and the IC50 [2] was 4600 nM.

In the case of Cc1nccc2c3ccc(F)cc3n(CCCCN)c12, the IC50 [1] is reported as > 10 µM and the IC50 [2] is reported as 580 nM.

With CCc1nccc2c3ccc(OC)cc3n(CCCCN)c12 the IC50 [1] was > 10 µM and the IC50 [2] was 190 nM.

In the case of Cc1nccc2c3ccc(NS(C)(=O)=O)cc3n(CCCCN)c12, the IC50 [1] is reported as > 10 µM and the IC50 [2] is reported as 690 nM.

In the case of COc1ccc2c3ccnc(C(C)C)c3n(CCCCN)c2c1, the IC50 [1] is reported as > 10 µM and the IC50 [2] is reported as 460 nM.

COc1ccc2c3ccnc(C)c3n(CCCCN)c2c1Cl gave an IC50 [1] of 8 µM and an IC50 [2] of 830 nM.

For Cc1nccc2c1[nH]c1cc(OCCCCN)ccc12, the inhibition [3] was “inactive”.

For COc1ccc2c3ccnc(C)c3n(CCCCN)c2c1, the IC50 [1] was > 10 µM and the IC50 [2] was 170 nM.

Cc1[nH]ccc2c1[nH]c1cc(=O)ccc12 [HARMOL] was tested, and the IC50 [4] was 1500 nM and the IC50 [2] was 770 nM.

With CNCCCCn1c2cc(OC)ccc2c2ccnc(C)c21 the IC50 [1] was > 10 µM and the IC50 [2] was 340 nM.

Cc1nccc2c1[nH]c1cc(OCCCN)ccc12 was tested, and the inhibition [3] was “inactive”.

COc1ccc2c(c1)c1ccnc(C)c1n2CCCCN was tested, and the IC50 [1] was 4.9 µM and the IC50 [2] was 2400 nM.

For COc1ccc2c(c1)[nH]c1c(C)nccc12 [HARMINE], the IC50 [4] was 690 nM.

COc1cccc2c3ccnc(C)c3n(CCCCN)c12 was tested, and the IC50 [1] was > 10 µM and the IC50 [2] was 220 nM.

In the case of COc1ccc2c3ccncc3n(CCCCN)c2c1, the IC50 [1] is reported as > 10 µM and the IC50 [2] is reported as 300 nM.

NCCCCn1c2cc(O)ccc2c2ccnc(C(F)(F)F)c21 gave an IC50 [1] of 8.5 µM and an IC50 [2] of 220 nM.

From ChEMBL document CHEMBL2010722, “Structure-activity relationship study of beta-carboline derivatives as haspin kinase inhibitors” (Bioorg Med Chem Lett, 2012)
